Reference: EP1670820B1, “ANTIGENS FOR AN EAST COAST FEVER VACCINE” (International Livestock Research Institute ( ILRI), priority 2003, dated 2005)

Tested on: peptide pulsed autologous iSF
Experiment: 51Chromium release assay: CTL lysis of peptide pulsed autologous iSF
Type: cell-based, cattle
Settings: autologous iSF pulsed overnight with peptide; BW014 polyclonal CD8+ CTL line (FIG. 9)

SLVCVLMKC [Tp2 peptide 76B]
lysis of iSF pulsed with peptide: background levels of lysis
